Results: BindingDB's records for doi:10.1021/acs.jmedchem.9b01508 (Virginia Tech, 2020)

experiment: Inhibition of human SphK2 expressed in Saccharomyces cerevisiae KYA1 assessed as yeast growth measured after 24 hrs

In order of falling EC50:
1. CCc1cc(-c2noc([C@@H]3CCCN3C(=N)N)n2)ccc1OCc1ccc(C(F)(F)F)cc1  146 nM
2. C=CCc1cc(-c2noc([C@@H]3CCCN3C(=N)N)n2)ccc1OCc1ccc(C(F)(F)F)cc1  84 nM
3. CC(C)(C)c1cc(-c2noc([C@@H]3CCCN3C(=N)N)n2)ccc1OCc1ccc(C(F)(F)F)cc1  73 nM
4. N=C(N)N1CCC[C@H]1c1nc(-c2ccc(OCc3ccc(C(F)(F)F)cc3)c(C(F)(F)F)c2)no1  59 nM
5. N=C(N)N1CCC[C@H]1c1nc(-c2ccc(OCc3ccc(C(F)(F)F)cc3)c(C3CC3)c2)no1  50 nM
6. CCCc1cc(-c2noc([C@@H]3CCCN3C(=N)N)n2)ccc1OCc1ccc(C(F)(F)F)cc1  37 nM
7. CC(C)c1cc(-c2noc([C@@H]3CCCN3C(=N)N)n2)ccc1OCc1ccc(C(F)(F)F)cc1  32 nM
